# According to US20240358668A1, “METHODS AND CO[…] AM[…] CARD[…] USING (R)-2-AMINO-3-PH[…]” (AXSOME THERAPEUTICS, INC., priority 2021, published 2024):
# Test system: participants with narcolepsy or OSA
# Experiment: 1-year OLE study: blood pressure, parent study baseline to OLE week 40
# Format: in vivo, human
# Method: A 1-year open-label extension (OLE) study was performed with 374 participants to examined whether clinically significant weight loss (≥5%) in this population had favorable effects on biomarkers of cardiovascular risk compared to no such weight loss. The study measured changes in weight and BP (parent study baseline to OLE week 40) and clinical laboratory assessments (OLE baseline to week 40) in participants with narcolepsy (n=124) or OSA (n=250) who received solriamfetol at doses of 75, 150, or 300 mg/d.
# We evaluated changes in weight and BP (parent study baseline to OLE week 40) and clinical laboratory assessments (OLE baseline to week 40) in participants with narcolepsy (n=124) or OSA (n=250) from the OLE study.
# [1] = Weight loss <5% at Week 40, 75 mg/d
# [2] = Weight loss <5% at Week 40, 150 mg/d
# [3] = Weight loss <5% at Week 40, 300 mg/d
# [4] = Weight loss <5% at Week 40, all doses
# [5] = Weight loss <5% at Week 40, all doses, listed as Solri
# [6] = Weight loss <5% at Week 40, all doses, listed as solriamfetol
# [7] = Weight loss ≥5% at Week 40, 75 mg/d
# [8] = Weight loss ≥5% at Week 40, 150 mg/d
# [9] = Weight loss ≥5% at Week 40, 300 mg/d
# [10] = Weight loss ≥5% at Week 40, all doses
# [11] = Weight loss ≥5% at Week 40, all doses, listed as Solri
# [12] = Weight loss ≥5% at Week 40, all doses, listed as solriamfetol
compound,measurement,setting,value
"NC(=O)OC[C@H](N)Cc1ccccc1 [Solriamfetol, (R)-2-amino-3-phenylpropyl carbamate]","DBP Change - Wk 40, Mean (SD)",[1],0.2 (9.5) mmHg
same,"DBP Change - Wk 40, Median",[1],0.0 mmHg
same,DBP maximum changes from baseline to week 40: Decrease ≥10%,[1],3 (14.3) n (%)
same,DBP maximum changes from baseline to week 40: Decrease ≥20%,[1],0 n (%)
same,DBP maximum changes from baseline to week 40: Decrease ≥30%,[1],0 n (%)
same,DBP maximum changes from baseline to week 40: Increase ≥10%,[1],4 (19.0) n (%)
same,DBP maximum changes from baseline to week 40: Increase ≥20%,[1],0 n (%)
same,DBP maximum changes from baseline to week 40: Increase ≥30%,[1],0 n (%)
same,"SBP Change - Wk 40, Mean (SD)",[1],−3.0 (12.3) mmHg
same,"SBP Change - Wk 40, Median",[1],0.50 mmHg
same,SBP maximum changes from baseline to week 40: Decrease ≥10%,[1],6 (28.6) n (%)
same,SBP maximum changes from baseline to week 40: Decrease ≥20%,[1],0 n (%)
same,SBP maximum changes from baseline to week 40: Decrease ≥30%,[1],0 n (%)
same,SBP maximum changes from baseline to week 40: Increase ≥10%,[1],5 (23.8) n (%)
same,SBP maximum changes from baseline to week 40: Increase ≥20%,[1],0 n (%)
same,SBP maximum changes from baseline to week 40: Increase ≥30%,[1],0 n (%)
same,"DBP Change - Wk 40, Mean (SD)",[2],2.3 (7.9) mmHg
same,"DBP Change - Wk 40, Median",[2],2.3 mmHg
same,DBP maximum changes from baseline to week 40: Decrease ≥10%,[2],4 (3.8) n (%)
same,DBP maximum changes from baseline to week 40: Decrease ≥20%,[2],1 (1.0) n (%)
same,DBP maximum changes from baseline to week 40: Decrease ≥30%,[2],0 n (%)
same,DBP maximum changes from baseline to week 40: Increase ≥10%,[2],16 (15.2) n (%)
same,DBP maximum changes from baseline to week 40: Increase ≥20%,[2],3 (2.9) n (%)
same,DBP maximum changes from baseline to week 40: Increase ≥30%,[2],0 n (%)
same,"SBP Change - Wk 40, Mean (SD)",[2],2.30 (12.1) mmHg
same,"SBP Change - Wk 40, Median",[2],2.00 mmHg
same,SBP maximum changes from baseline to week 40: Decrease ≥10%,[2],15 (14.3) n (%)
same,SBP maximum changes from baseline to week 40: Decrease ≥20%,[2],4 (3.8) n (%)
same,SBP maximum changes from baseline to week 40: Decrease ≥30%,[2],0 n (%)
same,SBP maximum changes from baseline to week 40: Increase ≥10%,[2],26 (24.8) n (%)
same,SBP maximum changes from baseline to week 40: Increase ≥20%,[2],7 (6.7) n (%)
same,SBP maximum changes from baseline to week 40: Increase ≥30%,[2],2 (1.9) n (%)
same,"DBP Change - Wk 40, Mean (SD)",[3],0.6 (9.1) mmHg
same,"DBP Change - Wk 40, Median",[3],1.5 mmHg
same,DBP maximum changes from baseline to week 40: Decrease ≥10%,[3],20 (13.2) n (%)
same,DBP maximum changes from baseline to week 40: Decrease ≥20%,[3],5 (3.3) n (%)
same,DBP maximum changes from baseline to week 40: Decrease ≥30%,[3],0 n (%)
same,DBP maximum changes from baseline to week 40: Increase ≥10%,[3],21 (13.8) n (%)
same,DBP maximum changes from baseline to week 40: Increase ≥20%,[3],2 (1.3) n (%)
same,DBP maximum changes from baseline to week 40: Increase ≥30%,[3],0 n (%)
same,"SBP Change - Wk 40, Mean (SD)",[3],−0.37 (12.7) mmHg
same,"SBP Change - Wk 40, Median",[3],0.17 mmHg
same,SBP maximum changes from baseline to week 40: Decrease ≥10%,[3],36 (23.7) n (%)
same,SBP maximum changes from baseline to week 40: Decrease ≥20%,[3],10 (6.6) n (%)
same,SBP maximum changes from baseline to week 40: Decrease ≥30%,[3],2 (1.3) n (%)
same,SBP maximum changes from baseline to week 40: Increase ≥10%,[3],33 (21.7) n (%)
same,SBP maximum changes from baseline to week 40: Increase ≥20%,[3],8 (5.3) n (%)
same,SBP maximum changes from baseline to week 40: Increase ≥30%,[3],0 n (%)
same,"DBP Change - Wk 40, Median",[4],1.4 mmHg
same,DBP maximum changes from baseline to week 40: Decrease ≥10%,[4],27 (9.7) n (%)
same,DBP maximum changes from baseline to week 40: Decrease ≥20%,[4],6 (2.2) n (%)
same,DBP maximum changes from baseline to week 40: Decrease ≥30%,[4],0 n (%)
same,DBP maximum changes from baseline to week 40: Increase ≥10%,[4],41 (14.7) n (%)
same,DBP maximum changes from baseline to week 40: Increase ≥20%,[4],5 (1.8) n (%)
same,DBP maximum changes from baseline to week 40: Increase ≥30%,[4],0 n (%)
same,"SBP Change - Wk 40, Median",[4],0.50 mmHg
same,SBP maximum changes from baseline to week 40: Decrease ≥10%,[4],57 (20.5) n (%)
same,SBP maximum changes from baseline to week 40: Decrease ≥20%,[4],14 (5.0) n (%)
same,SBP maximum changes from baseline to week 40: Decrease ≥30%,[4],2 (0.7) n (%)
same,SBP maximum changes from baseline to week 40: Increase ≥10%,[4],64 (23.0) n (%)
same,SBP maximum changes from baseline to week 40: Increase ≥20%,[4],15 (5.4) n (%)
same,SBP maximum changes from baseline to week 40: Increase ≥30%,[4],2 (0.7) n (%)
same,"DBP Change - Wk 40, Mean (SD)",[5],1.2 (8.7) mmHg
same,"SBP Change - Wk 40, Mean (SD)",[5],0.65 (12.5) mmHg
same,"DBP Change - Wk 40, Mean (SD)",[6],1.2±8.7 mmHg
same,"SBP Change - Wk 40, Mean (SD)",[6],0.65±12.5 mmHg
same,"DBP Change - Wk 40, Mean (SD)",[7],−3.8 mmHg
same,"DBP Change - Wk 40, Median",[7],−3.8 mmHg
same,DBP maximum changes from baseline to week 40: Decrease ≥10%,[7],0 n (%)
same,DBP maximum changes from baseline to week 40: Decrease ≥20%,[7],0 n (%)
same,DBP maximum changes from baseline to week 40: Decrease ≥30%,[7],0 n (%)
same,DBP maximum changes from baseline to week 40: Increase ≥10%,[7],0 n (%)
same,DBP maximum changes from baseline to week 40: Increase ≥20%,[7],0 n (%)
same,DBP maximum changes from baseline to week 40: Increase ≥30%,[7],0 n (%)
same,"SBP Change - Wk 40, Mean (SD)",[7],−3.3 mmHg
same,"SBP Change - Wk 40, Median",[7],−3.3 mmHg
same,SBP maximum changes from baseline to week 40: Decrease ≥10%,[7],0 n (%)
same,SBP maximum changes from baseline to week 40: Decrease ≥20%,[7],0 n (%)
same,SBP maximum changes from baseline to week 40: Decrease ≥30%,[7],0 n (%)
same,SBP maximum changes from baseline to week 40: Increase ≥10%,[7],0 n (%)
same,SBP maximum changes from baseline to week 40: Increase ≥20%,[7],0 n (%)
same,SBP maximum changes from baseline to week 40: Increase ≥30%,[7],0 n (%)
same,"DBP Change - Wk 40, Mean (SD)",[8],−1.9 (9.9) mmHg
same,"DBP Change - Wk 40, Median",[8],0.5 mmHg
same,DBP maximum changes from baseline to week 40: Decrease ≥10%,[8],5 (22.7) n (%)
same,DBP maximum changes from baseline to week 40: Decrease ≥20%,[8],1 (4.5) n (%)
same,DBP maximum changes from baseline to week 40: Decrease ≥30%,[8],0 n (%)
same,DBP maximum changes from baseline to week 40: Increase ≥10%,[8],3 (13.6) n (%)
same,DBP maximum changes from baseline to week 40: Increase ≥20%,[8],0 n (%)
same,DBP maximum changes from baseline to week 40: Increase ≥30%,[8],0 n (%)
same,"SBP Change - Wk 40, Mean (SD)",[8],−4.5 (13.8) mmHg
same,"SBP Change - Wk 40, Median",[8],−2.8 mmHg
same,SBP maximum changes from baseline to week 40: Decrease ≥10%,[8],7 (31.8) n (%)
same,SBP maximum changes from baseline to week 40: Decrease ≥20%,[8],1 (4.5) n (%)
same,SBP maximum changes from baseline to week 40: Decrease ≥30%,[8],1 (4.5) n (%)
same,SBP maximum changes from baseline to week 40: Increase ≥10%,[8],3 (13.6) n (%)
same,SBP maximum changes from baseline to week 40: Increase ≥20%,[8],1 (4.5) n (%)
same,SBP maximum changes from baseline to week 40: Increase ≥30%,[8],0 n (%)
same,"DBP Change - Wk 40, Mean (SD)",[9],−0.8 (8.9) mmHg
same,"DBP Change - Wk 40, Median",[9],−0.3 mmHg
same,DBP maximum changes from baseline to week 40: Decrease ≥10%,[9],11 (15.1) n (%)
same,DBP maximum changes from baseline to week 40: Decrease ≥20%,[9],3 (4.1) n (%)
same,DBP maximum changes from baseline to week 40: Decrease ≥30%,[9],0 n (%)
same,DBP maximum changes from baseline to week 40: Increase ≥10%,[9],8 (11.0) n (%)
same,DBP maximum changes from baseline to week 40: Increase ≥20%,[9],0 n (%)
same,DBP maximum changes from baseline to week 40: Increase ≥30%,[9],0 n (%)
same,"SBP Change - Wk 40, Mean (SD)",[9],−2.0 (10.8) mmHg
same,"SBP Change - Wk 40, Median",[9],−1.8 mmHg
same,SBP maximum changes from baseline to week 40: Decrease ≥10%,[9],20 (27.4) n (%)
same,SBP maximum changes from baseline to week 40: Decrease ≥20%,[9],2 (2.7) n (%)
same,SBP maximum changes from baseline to week 40: Decrease ≥30%,[9],0 n (%)
same,SBP maximum changes from baseline to week 40: Increase ≥10%,[9],13 (17.8) n (%)
same,SBP maximum changes from baseline to week 40: Increase ≥20%,[9],1 (1.4) n (%)
same,SBP maximum changes from baseline to week 40: Increase ≥30%,[9],0 n (%)
same,"DBP Change - Wk 40, Median",[10],−0.3 mmHg
same,DBP maximum changes from baseline to week 40: Decrease ≥10%,[10],16 (16.7) n (%)
same,DBP maximum changes from baseline to week 40: Decrease ≥20%,[10],4 (4.2) n (%)
same,DBP maximum changes from baseline to week 40: Decrease ≥30%,[10],0 n (%)
same,DBP maximum changes from baseline to week 40: Increase ≥10%,[10],11 (11.5) n (%)
same,DBP maximum changes from baseline to week 40: Increase ≥20%,[10],0 n (%)
same,DBP maximum changes from baseline to week 40: Increase ≥30%,[10],0 n (%)
same,"SBP Change - Wk 40, Median",[10],−2.8 mmHg
same,SBP maximum changes from baseline to week 40: Decrease ≥10%,[10],27 (28.1) n (%)
same,SBP maximum changes from baseline to week 40: Decrease ≥20%,[10],3 (3.1) n (%)
same,SBP maximum changes from baseline to week 40: Decrease ≥30%,[10],1 (1.0) n (%)
same,SBP maximum changes from baseline to week 40: Increase ≥10%,[10],16 (16.7) n (%)
same,SBP maximum changes from baseline to week 40: Increase ≥20%,[10],2 (2.1) n (%)
same,SBP maximum changes from baseline to week 40: Increase ≥30%,[10],0 n (%)
same,"DBP Change - Wk 40, Mean (SD)",[11],−1.0 (9.0) mmHg
same,"SBP Change - Wk 40, Mean (SD)",[11],−2.6 (11.4) mmHg
same,"DBP Change - Wk 40, Mean (SD)",[12],−1.0±9.0 mmHg
same,"SBP Change - Wk 40, Mean (SD)",[12],−2.6±11.4 mmHg
